Measured values from patent US20080139484A1, “1(Beta-D-Glycopyranosyl)-3-Substituted Nitrogenous Heterocyclic Compound, Medicinal Composition Containing the Same, and Medicinal Use Thereof” (KISSEI PHARMACEUTICAL CO., LTD., priority 2004, published 2008).
pIC50: −log10 of the molar value.

Tests used:
[1] = biological target: T1, human SGLT1 (Homo sapiens, UniProt P13866); experiment: Inhibition of methyl-α-D-glucopyranoside (α-MG) uptake in COS-7 cells expressing human SGLT1; format: cell-based; details: COS-7 cells expressing human SGLT1, 1 mM α-MG, 1 hour incubation at 37° C.
T1 construct: expressed in transfected cells; host or cells: COS-7 cells, transient lipofection (Lipofectamine-2000) of pcDNA3.1(-) vector
T1 sequence (P13866 1-664): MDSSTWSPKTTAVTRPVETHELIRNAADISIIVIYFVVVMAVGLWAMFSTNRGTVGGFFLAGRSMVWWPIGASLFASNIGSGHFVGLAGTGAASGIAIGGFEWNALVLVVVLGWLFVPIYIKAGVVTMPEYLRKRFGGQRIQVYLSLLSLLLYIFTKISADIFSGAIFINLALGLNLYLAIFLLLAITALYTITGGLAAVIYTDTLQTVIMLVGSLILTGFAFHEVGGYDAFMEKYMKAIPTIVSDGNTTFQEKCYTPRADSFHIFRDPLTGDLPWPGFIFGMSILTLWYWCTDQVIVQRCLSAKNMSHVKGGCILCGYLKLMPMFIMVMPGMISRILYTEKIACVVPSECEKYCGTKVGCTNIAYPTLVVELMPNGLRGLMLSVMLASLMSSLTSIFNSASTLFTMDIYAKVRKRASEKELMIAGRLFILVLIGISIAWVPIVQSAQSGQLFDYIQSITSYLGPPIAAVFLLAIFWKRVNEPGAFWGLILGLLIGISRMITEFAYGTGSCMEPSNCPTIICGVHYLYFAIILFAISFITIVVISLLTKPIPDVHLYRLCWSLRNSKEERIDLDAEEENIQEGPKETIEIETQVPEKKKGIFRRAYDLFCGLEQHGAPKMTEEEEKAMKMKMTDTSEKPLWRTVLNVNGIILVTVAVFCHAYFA
Method: (§1) Assay for Inhibitory Effects on Human SGLT Activity
(§2) The cDNA library was prepared for PCR amplification by reverse transcription from total RNA deprived from human small intestine (Ori gene) using oligo-dT as a primer. Using this cDNA library as a template, the DNA fragment coding 1 to 2005 bp of human SGLT1 (ACCESSION: M24847), which was reported by Hediger et al., was amplified by PCR method and inserted into the multi-cloning site of pcDNA3.1(−) (Invitrogen). The DNA sequence inserted was perfectly matched to the previously reported sequence.
(§3) The vector expressing human SGLT1 or SGLT2 was transfected into COS-7 cells by lipofection method (Lipofectamine-2000: Invitrogen). First, COS-7 cells were plated 5×10^4 cells/100 μL/well on 96-wells plate and incubated at 37° C. for 2 hours. In addition, per 50 μL medium, 0.3 μg of human SGLT1 or SGLT2 expression vector was mixed with 0.5 μL of Lipofectamine-2000 and the complex solution was prepared. Fifty μL/well of this complex solution was added to COS-7 cells, previously described, and the plate was mixed gently and was used for uptake assay after 2 days culture.
A mixture of non-labeled (Sigma) and ^14C-labeled α-MG (Amersham Pharmacia Biotech) was added to the uptake buffer (pH 7.4; containing 140 mM sodium chloride, 2 mM potassium chloride, 1 mM calcium chloride, 1 mM magnesium chloride, 10 mM 2-[4-(2-hydroxyethyl)-1-piperazinyl]ethane sulfonic acid and 5 mM tris(hydroxymethyl)aminomethane) at the final concentration of 1 mM. A test compound was dissolved in dimethyl sulfoxide, and then appropriately diluted with distilled water. The test compound solution was added to the uptake buffer containing 1 mM α-MG, and designated as a measurement buffer. For the control group, the measurement buffer without any test compound was prepared. For measuring the basal uptake, a basal uptake measurement buffer, which contains 140 mM chorine chloride instead of sodium chloride, was prepared. After removing the culture medium of cells expressing human SGLT1 or human SGLT2, 180 μL of the pre-treatment buffer (the basal uptake buffer without α-MG) was added to each well and incubated at 37° C. for 10 minutes. After repeating the same treatment, the pre-treatment buffer was removed, and then 75 μL per well of the measurement buffer or the basal uptake buffer was added and the cells were incubated at 37° C. […] Radioactivity was measured by means of micro-scintillation counter TopCount (Packard). One hundred % was set to the difference between the uptake in the control group and the basal uptake, and the uptake of methyl α-D-glucopyranoside at each drug concentration was calculated. […]

[2] = biological target: T2, human SGLT2 (Homo sapiens, UniProt P31639); experiment: Inhibition of methyl-α-D-glucopyranoside (α-MG) uptake in COS-7 cells expressing human SGLT2; format: cell-based; details: COS-7 cells expressing human SGLT2, 1 mM α-MG, 1 hour incubation at 37° C.
T2 construct: expressed in transfected cells; host or cells: COS-7 cells, transient lipofection (Lipofectamine-2000) of pcDNA3.1(-) vector
T2 sequence (P31639 1-672): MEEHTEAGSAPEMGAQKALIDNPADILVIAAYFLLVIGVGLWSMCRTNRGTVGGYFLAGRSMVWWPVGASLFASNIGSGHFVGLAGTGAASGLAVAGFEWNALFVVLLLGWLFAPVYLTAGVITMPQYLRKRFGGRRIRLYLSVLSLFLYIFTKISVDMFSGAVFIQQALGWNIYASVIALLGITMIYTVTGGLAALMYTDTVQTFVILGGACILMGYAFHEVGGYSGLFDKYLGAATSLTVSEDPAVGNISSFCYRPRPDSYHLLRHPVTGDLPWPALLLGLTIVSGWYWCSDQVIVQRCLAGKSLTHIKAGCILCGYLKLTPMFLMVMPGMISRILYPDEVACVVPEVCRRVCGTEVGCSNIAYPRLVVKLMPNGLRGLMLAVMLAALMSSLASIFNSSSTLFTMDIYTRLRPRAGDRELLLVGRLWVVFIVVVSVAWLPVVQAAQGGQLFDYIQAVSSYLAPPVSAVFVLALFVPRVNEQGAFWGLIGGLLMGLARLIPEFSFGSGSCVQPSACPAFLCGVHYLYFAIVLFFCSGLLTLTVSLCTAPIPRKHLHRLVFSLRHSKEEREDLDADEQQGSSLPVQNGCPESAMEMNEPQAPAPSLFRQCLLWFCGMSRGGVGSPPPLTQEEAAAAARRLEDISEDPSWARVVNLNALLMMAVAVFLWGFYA
Method: as §1
as §2, with “human kidney” for “human small intestine”, “coding 2” for “coding 1”, “to 2039” for “to 2005”, “human SGLT2” for “human SGLT1”, “(ACCESSION: M95549, M95299),” for “(ACCESSION: M24847),”, “by R. G. Wells” for “by Hediger”
as §3
A mixture of non-labeled (Sigma) and ^14C-labeled α-MG (Amersham Pharmacia Biotech) was added to the uptake buffer (pH 7.4; containing 140 mM sodium chloride, 2 mM potassium chloride, 1 mM calcium chloride, 1 mM magnesium chloride, 10 mM 2-[4-(2-hydroxyethyl)-1-piperazinyl]ethane sulfonic acid and 5 mM tris(hydroxymethyl)aminomethane) at the final concentration of 1 mM. A test compound was dissolved in dimethyl sulfoxide, and then appropriately diluted with distilled water. The test compound solution was added to the uptake buffer containing 1 mM α-MG, and designated as a measurement buffer. For the control group, the measurement buffer without any test compound was prepared. For measuring the basal uptake, a basal uptake measurement buffer, which contains 140 mM chorine chloride instead of sodium chloride, was prepared. After removing the culture medium of cells expressing human SGLT1 or human SGLT2, 180 μL of the pre-treatment buffer (the basal uptake buffer without α-MG) was added to each well and incubated at 37° C. for 10 minutes. After repeating the same treatment, the pre-treatment buffer was removed, and then 75 μL per well of the measurement buffer or the basal uptake buffer was added and the cells were incubated at 37° C. After 1 hour incubation, the measurement buffer was removed and the cells were washed twice with 180 μL per well of the washing buffer (the basal uptake buffer containing 10 mM non-labeled α-MG). The cells were solubilized by 75 μL per well of 0.2 mol/L sodium hydroxide, and then the cell lysates were transferred into PicoPlates (Packard). One hundred fifty μL of Microscint-40 (Packard) was added to the wells and mixed. Radioactivity was measured by means of micro-scintillation counter TopCount (Packard). One hundred % was set to the difference between the uptake in the control group and the basal uptake, and the uptake of methyl α-D-glucopyranoside at each drug concentration was calculated. The drug concentration, at which 50% uptake of methyl α-D-glucopyranoside was inhibited (IC50 value), was calculated using logit plot. The blanks in the Table are untested.

[3] = Test Example 2: effect on urinary glucose excretion; format: in vivo; details: overnight fasted male SD rats, 7 weeks of age, 1 mg/kg intravenously (3 mL/kg), urine collected for 24 hours
Method: As experimental animals, overnight fasted SD rats (CHARLES RIVER LABORATORIES JAPAN. Inc., Crj:CD(SD(IGS), male, 7 weeks of age, 200-230 g) were used.
Example 10 compound of 2.12 mg was dissolved by adding 636 μL of ethanol and 2544 μL of polyethylene glycol 400. And then the solution was mixed with 3180 μL of saline and sonicated. Example 12 compound of 2.18 mg was dissolved by adding 654 μL of ethanol and 2616 μL of polyethylene glycol 400. And then the solution was mixed with 3270 μL of saline and sonicated. These test compound solutions of 0.33 mg/mL were used for administration.
The body weights of rats were measured and the solution of the test compound was intravenously injected to the tail vein of rats at the dose of 3 mL/kg (1 mg/kg as test compound). Collection of urine was performed for 24 hours after the administration. […]
Frozen samples were thawed and mixed well. According to need, a part of samples was diluted with distilled water and the glucose concentration of these samples was measured with a kit for laboratory test: Glucose CII-Test WAKO (Wako Pure Chemical Industries, Ltd.).
The amounts of urinary glucose excretion per 200 g of body weight were calculated from glucose concentration of urinary samples, dilution factor, urinary volume and body weight using the following equation. […]

[4] = Test Example 4: inhibitory effects on blood glucose level increase, liquid meal tolerance test in diabetic rats; format: in vivo; details: streptozotocin diabetic rats, 2 mg/kg orally, liquid meal load, mean ± S.E.
Method: Rats, aged 8 weeks old, were injected streptozotocin (45 mg/kg) intravenously from tail vain. After 1 week, rats were fasted overnight and then glucose tolerance test (2 g/kg) was performed.
After overnight fasted, the diabetic rats were or ally administered a test compound (2 mg/kg), which was dissolved in distilled water, in the drug-treating group, or distilled water alone in a control group. Immediately after the compound administration, 3 mL/body of liquid meal (No. 038, Control diet, assorted with dextrin and maltose; Oriental Yeast Co., Ltd., prepared for 323 g/L) was loaded or ally. The blood was collected from tail artery immediately before and after administration with the time course, and treated with heparin immediately. The blood was centrifuged, and the plasma was collected and quantified the plasma glucose concentration by glucose oxidase method. The values in the Table are presented as the mean ±S.E.

[5] = Test Example 3: effect on urinary glucose excretion; format: in vivo; details: overnight fasted male SD rats, 9 weeks of age, 1 mg/kg intravenously (2 mL/kg), urine collected for 24 hours
Method: As experimental animals, overnight fasted SD rats (CHARLES RIVER LABORATORIES JAPAN. Inc., Crj:CD(SD)IGS, male, 9 weeks of age, 300-330 g) were used.
Example 346 compound of 2.90 mg was dissolved by adding 29.0 μL of dimethyl sulfoxide and 2320 μL of polyethylene glycol 400. And then, the solution was mixed with 3450 μL of saline. This 0.5 mg/mL solution was used for administration.
Rats were fasted for overnight. The body weights of rats were measured and urinary glucose excretions were calculated as with the Test Example 2 except for intravenously injection to the tail veins of rats at the dose of 2 mL/kg (1 mg/kg as test compound).

Row | Structure (SMILES) | pIC50 [1] | pIC50 [2] | other results
1 | COc1ccc(Cc2cn([C@@H]3O[C@H](CO)[C@@H](O)[C@H](O)[C@H]3O)c3cccc(C)c23)cc1 [Example 8] | 8.00 | 9.22 | –
2 | CCc1ccc(Cc2cn([C@@H]3O[C@H](CO)[C@@H](O)[C@H](O)[C@H]3O)c3ccccc23)cc1 [Example 10] | – | 9.30 | Amount of urinary excretion of glucose in 24 hours [3]: 11.2 mg/200 g body weight
3 | COc1ccc(Cc2cn([C@@H]3O[C@H](CO)[C@@H](O)[C@H](O)[C@H]3O)c3cc(C)ccc23)cc1 [Example 12, 1-(β-D-glucopyranosyl)-3-(4-methoxybenzyl)-6-methyl-1H-indole] | 5.49 | 9.05 | Amount of urinary excretion of glucose in 24 hours [3]: 111.8 mg/200 g body weight
4 | COc1ccc(Cc2cn([C@@H]3O[C@H](CO)[C@@H](O)[C@H](O)[C@H]3O)c3ccccc23)c(F)c1 [Example 15] | – | 7.96 | –
5 | Cc1cccc2c1c(Cc1ccc(OCCCNCCC(N)=O)cc1)cn2[C@@H]1O[C@H](CO)[C@@H](O)[C@H](O)[C@H]1O [Example 318, 3-[(4-{3-[2-(Carbamoyl)ethylamino]propoxy}phenyl)methyl]-1-(β-D-glucopyranosyl)-4-methyl-1H-indole] | 6.91 | – | –
6 | CCOC(=O)[C@H](CO)NC(=O)CCCc1ccc(Cc2cn([C@@H]3O[C@H](CO)[C@@H](O)[C@H](O)[C@H]3O)c3cccc(C)c23)cc1 [Example 320] | – | – | Plasma glucose concentration 0.5 h ([4]; 0.5 hour after administration): 230 ± 14 mg/dL; Plasma glucose concentration 1 h ([4]; 1 hour after administration): 312 ± 15 mg/dL; Plasma glucose concentration 0 h ([4]; pretreatment (0 h)): 133 ± 10 mg/dL
7 | Cc1cccc2c1c(Cc1ccc(CCCC(=O)NC(C)(C)C(=O)N3CCNCC3)cc1)cn2[C@@H]1O[C@H](CO)[C@@H](O)[C@H](O)[C@H]1O [Example 329, 1-(β-D-Glucopyranosyl)-3-(4-[3-{1-(piperazin-1-yl-carbonyl)-1-(methyl)ethylcarbamoyl}propyl]phenyl)methyl-4-methyl-1H-indole] | 7.39 | – | –
8 | COc1ccc(Sc2cn([C@@H]3O[C@H](CO)[C@@H](O)[C@H](O)[C@H]3O)c3cc(C)ccc23)cc1 [Example 346, 1-(β-D-Glucopyranosyl)-3-{(4-methoxyphenyl)sulfany}-6-methyl-1H-indole] | – | 9.40 | Amount of urinary excretion of glucose in 24 hours [5]: 33.12 mg/200 g body weight
